Reference: patent US20220281848A1, “PYRAZOLE-SUBSTITUTED PYRROLIDINONES AS HERBICIDES” (FMC Corporation, priority 2019, published 2022)

Columns and labels:
Type in all cases: in vivo
Conditions in all cases: after 13 d
[1] = test system: redroot pigweed (Amaranthus retroflexus, AMARE); test: Test A post-emergence, redroot pigweed
Outline: (§1)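 Visual damage rating (0 no damage to 100 total damage) was made 13 d after spraying. The spray was 15.625, 62.5 or 250 g/ha in 50:50 acetone/water with 0.5% Tween 20, applied to 8-day-old glasshouse plants kept at 24/16° C, 14 h light and 65% humidity.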

[2] = test system: ivy-leaved morning glory (Ipomoea hederacea, IPOHE); test: Test A post-emergence, ivy-leaved morning glory
Outline: as §1

[3] = test system: ivy-leaved morning glory (Ipomoea hederacea, IPOHE); test: Test A pre-emergence, ivy-leaved morning glory
Outline: (§2)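 Values are percent plant damage 13 d after a pre-emergence spray (15.625, 62.5 or 250 g/ha; acetone/water with 0.5% Tween 20) applied to pots one day post-sowing, under glasshouse conditions of 24/16° C. and twice-daily watering.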

[4] = test system: velvetleaf (Abutilon theophrasti, ABUTH); test: Test A pre-emergence, velvetleaf
Outline: as §2

[5] = test system: barnyardgrass (Echinochloa crus-galli, ECHCG); test: Test A post-emergence, barnyardgrass
Outline: as §1

[6] = test system: giant foxtail (Setaria faberi, SETFA); test: Test A post-emergence, giant foxtail
Outline: as §1

corn (Zea mays, ZEAMX) [7] = test: Test A pre-emergence, corn
Outline: as §2

[8] = test system: barnyardgrass (Echinochloa crus-galli, ECHCG); test: Test A pre-emergence, barnyardgrass
Outline: as §2

[9] = test system: giant foxtail (Setaria faberi, SETFA); test: Test A pre-emergence, giant foxtail
Outline: as §2

corn (Zea mays, ZEAMX) [10] = test: Test A post-emergence, corn
Outline: as §1

[11] = test system: redroot pigweed (Amaranthus retroflexus, AMARE); test: Test A pre-emergence, redroot pigweed
Outline: as §2

[12] = test system: velvetleaf (Abutilon theophrasti, ABUTH); test: Test A post-emergence, velvetleaf
Outline: as §1

Row | SMILES | damage to plant (100=total damage; 0=no damage) AMARE ([1]; Post-Emergence at 15.625 g/ha) | damage to plant (100=total damage; 0=no damage) AMARE ([1]; Post-Emergence at 62.5 g/ha) | damage to plant (100=total damage; 0=no damage) AMARE ([1]; Post-Emergence at 250 g/ha) | damage to plant (100=total damage; 0=no damage) IPOHE ([2]; Post-Emergence at 15.625 g/ha) | damage to plant (100=total damage; 0=no damage) IPOHE ([2]; Post-Emergence at 62.5 g/ha) | damage to plant (100=total damage; 0=no damage) IPOHE ([2]; Post-Emergence at 250 g/ha) | damage to plant (100=total damage; 0=no damage) IPOHE ([3]; Pre-Emergence at 15.625 g/ha) | damage to plant (100=total damage; 0=no damage) IPOHE ([3]; Pre-Emergence at 62.5 g/ha) | damage to plant (100=total damage; 0=no damage) IPOHE ([3]; Pre-Emergence at 250 g/ha) | damage to plant (100=total damage; 0=no damage) ABUTH ([4]; Pre-Emergence at 15.625 g/ha) | damage to plant (100=total damage; 0=no damage) ABUTH ([4]; Pre-Emergence at 62.5 g/ha) | damage to plant (100=total damage; 0=no damage) ABUTH ([4]; Pre-Emergence at 250 g/ha) | damage to plant (100=total damage; 0=no damage) ECHCG ([5]; Post-Emergence at 15.625 g/ha) | damage to plant (100=total damage; 0=no damage) ECHCG ([5]; Post-Emergence at 62.5 g/ha) | damage to plant (100=total damage; 0=no damage) ECHCG ([5]; Post-Emergence at 250 g/ha) | damage to plant (100=total damage; 0=no damage) SETFA ([6]; Post-Emergence at 15.625 g/ha) | damage to plant (100=total damage; 0=no damage) SETFA ([6]; Post-Emergence at 62.5 g/ha) | damage to plant (100=total damage; 0=no damage) SETFA ([6]; Post-Emergence at 250 g/ha) | damage to plant (100=total damage; 0=no damage) ZEAMX (corn (Zea mays, ZEAMX) [7]; Pre-Emergence at 15.625 g/ha) | damage to plant (100=total damage; 0=no damage) ZEAMX (corn (Zea mays, ZEAMX) [7]; Pre-Emergence at 62.5 g/ha) | further results
1 | CN1CC(c2cc(C(F)(F)F)n(C)n2)C(C(=O)Nc2cccc(F)c2F)C1=O (stereo not drawn) [Compound 12] | 0 | 0 | 0 | 0 | 0 | 0 | 0 | 0 | 20 | 0 | 0 | 0 | 0 | 0 | 0 | 0 | 0 | 0 | 0 | 0 | damage to plant (100=total damage; 0=no damage) ZEAMX (corn (Zea mays, ZEAMX) [7]; Pre-Emergence at 250 g/ha): 20; damage to plant (100=total damage; 0=no damage) ECHCG ([8]; Pre-Emergence at 15.625 g/ha): 0; damage to plant (100=total damage; 0=no damage) ECHCG ([8]; Pre-Emergence at 62.5 g/ha): 0; damage to plant (100=total damage; 0=no damage) ECHCG ([8]; Pre-Emergence at 250 g/ha): 10; damage to plant (100=total damage; 0=no damage) SETFA ([9]; Pre-Emergence at 15.625 g/ha): 0; damage to plant (100=total damage; 0=no damage) SETFA ([9]; Pre-Emergence at 62.5 g/ha): 0; damage to plant (100=total damage; 0=no damage) SETFA ([9]; Pre-Emergence at 250 g/ha): 0; damage to plant (100=total damage; 0=no damage) ZEAMX (corn (Zea mays, ZEAMX) [10]; Post-Emergence at 15.625 g/ha): 0; damage to plant (100=total damage; 0=no damage) ZEAMX (corn (Zea mays, ZEAMX) [10]; Post-Emergence at 62.5 g/ha): 0; damage to plant (100=total damage; 0=no damage) ZEAMX (corn (Zea mays, ZEAMX) [10]; Post-Emergence at 250 g/ha): 0; damage to plant (100=total damage; 0=no damage) AMARE ([11]; Pre-Emergence at 15.625 g/ha): 0; damage to plant (100=total damage; 0=no damage) AMARE ([11]; Pre-Emergence at 62.5 g/ha): 0; damage to plant (100=total damage; 0=no damage) AMARE ([11]; Pre-Emergence at 250 g/ha): 10; damage to plant (100=total damage; 0=no damage) ABUTH ([12]; Post-Emergence at 15.625 g/ha): 0; damage to plant (100=total damage; 0=no damage) ABUTH ([12]; Post-Emergence at 62.5 g/ha): 0; damage to plant (100=total damage; 0=no damage) ABUTH ([12]; Post-Emergence at 250 g/ha): 0
2 | CN1CC(c2nn(C)c(Cl)c2Br)C(C(=O)Nc2ccc(F)c(F)c2F)C1=O (racemic) [Compound 32] | 0 | 0 | 0 | 0 | 0 | 10 | 0 | 0 | 10 | 0 | 0 | 0 | 10 | 40 | 80 | 20 | 60 | 80 | 0 | 10 | damage to plant (100=total damage; 0=no damage) ZEAMX (corn (Zea mays, ZEAMX) [7]; Pre-Emergence at 250 g/ha): 10; damage to plant (100=total damage; 0=no damage) ECHCG ([8]; Pre-Emergence at 15.625 g/ha): 30; damage to plant (100=total damage; 0=no damage) ECHCG ([8]; Pre-Emergence at 62.5 g/ha): 50; damage to plant (100=total damage; 0=no damage) ECHCG ([8]; Pre-Emergence at 250 g/ha): 70; damage to plant (100=total damage; 0=no damage) SETFA ([9]; Pre-Emergence at 15.625 g/ha): 20; damage to plant (100=total damage; 0=no damage) SETFA ([9]; Pre-Emergence at 62.5 g/ha): 60; damage to plant (100=total damage; 0=no damage) SETFA ([9]; Pre-Emergence at 250 g/ha): 90; damage to plant (100=total damage; 0=no damage) ZEAMX (corn (Zea mays, ZEAMX) [10]; Post-Emergence at 15.625 g/ha): 0; damage to plant (100=total damage; 0=no damage) ZEAMX (corn (Zea mays, ZEAMX) [10]; Post-Emergence at 62.5 g/ha): 0; damage to plant (100=total damage; 0=no damage) ZEAMX (corn (Zea mays, ZEAMX) [10]; Post-Emergence at 250 g/ha): 10; damage to plant (100=total damage; 0=no damage) AMARE ([11]; Pre-Emergence at 15.625 g/ha): 0; damage to plant (100=total damage; 0=no damage) AMARE ([11]; Pre-Emergence at 62.5 g/ha): 0; damage to plant (100=total damage; 0=no damage) AMARE ([11]; Pre-Emergence at 250 g/ha): 0; damage to plant (100=total damage; 0=no damage) ABUTH ([12]; Post-Emergence at 15.625 g/ha): 0; damage to plant (100=total damage; 0=no damage) ABUTH ([12]; Post-Emergence at 62.5 g/ha): 0; damage to plant (100=total damage; 0=no damage) ABUTH ([12]; Post-Emergence at 250 g/ha): 0
